In paper PMC8510236, “Unraveling the Compositional and Molecular Features Involved in Lysozyme-Benzothiazole Derivative Interactions” (Molecules, 2021):
Structures can show the parent of a compound that is named as a salt.

Target: T1, Lysozyme from chicken egg white (Gallus gallus, UniProt P00698)
T1 construct: gene LYZ
Assay: isothermal titration calorimetry (VP-ITC)
Assay type: binding
Settings: read-out: K

T1 sequence (P00698 19-147): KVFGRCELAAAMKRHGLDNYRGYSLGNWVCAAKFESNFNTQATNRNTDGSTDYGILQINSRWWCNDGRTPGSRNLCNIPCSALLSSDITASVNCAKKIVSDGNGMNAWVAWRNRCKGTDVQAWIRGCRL

O=S(=O)(O)CCCSc1nc2ccccc2s1 [BTS, 3-(2-Benzohiazolylthio)-1-propane-sulfonic acid sodium salt]
Kd: 2620 nM
